Reference: ChEMBL document CHEMBL1153688, “Design, synthesis, and pharmacological evaluation of dual histamine H2 and gastrin receptor antagonists” (Bioorg Med Chem Lett, 1996)

Tests used:
[1] = target: T1, Gastrin/cholecystokinin type B receptor (Mus musculus, UniProt P56481); assay: Inhibitory activity against Cholecystokinin type B receptor
T1 sequence (P56481 whole entry): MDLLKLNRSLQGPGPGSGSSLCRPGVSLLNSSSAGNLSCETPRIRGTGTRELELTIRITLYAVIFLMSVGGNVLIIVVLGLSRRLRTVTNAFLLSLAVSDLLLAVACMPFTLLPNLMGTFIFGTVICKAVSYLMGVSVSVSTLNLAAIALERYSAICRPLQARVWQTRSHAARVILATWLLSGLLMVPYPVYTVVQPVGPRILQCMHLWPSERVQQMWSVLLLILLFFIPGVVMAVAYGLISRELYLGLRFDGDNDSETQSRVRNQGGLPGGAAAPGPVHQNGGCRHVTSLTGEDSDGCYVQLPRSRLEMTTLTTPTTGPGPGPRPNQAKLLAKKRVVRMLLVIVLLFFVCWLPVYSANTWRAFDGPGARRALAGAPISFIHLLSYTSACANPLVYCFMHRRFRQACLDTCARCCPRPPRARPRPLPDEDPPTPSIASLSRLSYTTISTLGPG

[2] = target: T2, Cholecystokinin receptor type A (Mus musculus, UniProt O08786); assay: Inhibitory activity against Cholecystokinin type A receptor
T2 sequence (O08786 whole entry): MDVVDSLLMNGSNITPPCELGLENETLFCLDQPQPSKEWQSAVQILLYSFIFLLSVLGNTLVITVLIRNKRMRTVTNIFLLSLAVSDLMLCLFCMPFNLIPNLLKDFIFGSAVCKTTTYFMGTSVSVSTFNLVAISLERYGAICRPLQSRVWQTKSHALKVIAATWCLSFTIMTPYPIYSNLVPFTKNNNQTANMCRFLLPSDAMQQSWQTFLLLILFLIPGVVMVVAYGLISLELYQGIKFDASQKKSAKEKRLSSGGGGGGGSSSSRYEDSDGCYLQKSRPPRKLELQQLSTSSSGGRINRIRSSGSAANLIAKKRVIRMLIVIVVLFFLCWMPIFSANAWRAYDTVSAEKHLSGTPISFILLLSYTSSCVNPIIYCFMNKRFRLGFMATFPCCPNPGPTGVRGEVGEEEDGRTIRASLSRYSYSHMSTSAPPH

[3] = target: Histamine H2 receptor (Rattus norvegicus, UniProt P25102); assay: Antagonistic activity for inhibition of histamine H2 receptor from anesthetized rats; type: functional; conditions: read-out: pA2 (converted)
Sequence of Histamine H2 receptor (P25102 whole entry): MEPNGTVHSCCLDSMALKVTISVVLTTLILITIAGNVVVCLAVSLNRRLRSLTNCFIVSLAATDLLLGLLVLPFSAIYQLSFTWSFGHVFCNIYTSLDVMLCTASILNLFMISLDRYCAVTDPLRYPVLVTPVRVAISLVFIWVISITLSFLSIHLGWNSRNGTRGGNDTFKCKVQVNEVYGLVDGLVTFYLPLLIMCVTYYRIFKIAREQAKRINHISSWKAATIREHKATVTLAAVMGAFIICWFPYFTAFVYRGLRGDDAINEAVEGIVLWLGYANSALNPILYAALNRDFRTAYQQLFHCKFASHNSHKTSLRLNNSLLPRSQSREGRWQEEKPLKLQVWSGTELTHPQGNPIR

[4] = target: Cholecystokinin receptor (Mus musculus) (UniProt O08786+P56481); assay: Ratio of IC50(gastrin) to IC50(CCK-A); type: protein assay

SMILES	IC50 [1]	IC50 [2]	Kb [3]	Ratio [4]
CN1C(=O)[C@H](NC(=O)Nc2cccc(CC(=O)NCCC(=O)NCCSCc3csc(N=C(N)N)n3)c2)N=C(c2ccccc2)c2ccccc21	0.2 µM	0.12 µM	0.398 µM	1.5
CN1C(=O)[C@H](NC(=O)Nc2cccc(CC(=O)NCCCOc3cccc(CN4CCCCC4)c3)c2)N=C(c2ccccc2)c2ccccc21	0.16 µM	4.1 µM	> 10 µM	17.8
Cc1cccc(NC(=O)NC2N=C(c3ccccc3)c3ccccc3N(CC(=O)NCCSCc3csc(N=C(N)N)n3)C2=O)c1 (centres undefined)	0.035 µM	4.8 µM	> 10 µM	1600
Cc1cccc(NC(=O)NC2N=C(c3ccccc3)c3ccccc3N(CC(=O)NCCC(=O)NCCSCc3csc(N=C(N)N)n3)C2=O)c1 (centres undefined)	0.43 µM	0.39 µM	1.26 µM	5.2
CN1C(=O)[C@H](NC(=O)Nc2cccc(C(=O)NCCCOc3cccc(CN4CCCCC4)c3)c2)N=C(c2ccccc2)c2ccccc21	0.6 µM	2.5 µM	> 10 µM	4.5
CN1C(=O)[C@H](NC(=O)Nc2cccc(CC(=O)NCCCC(=O)NCCSCc3csc(N=C(N)N)n3)c2)N=C(c2ccccc2)c2ccccc21	0.33 µM	0.33 µM	0.501 µM	1.4
CN1C(=O)[C@H](NC(=O)Nc2cccc(CC(=O)NCCCCCC(=O)NCCSCc3csc(N=C(N)N)n3)c2)N=C(c2ccccc2)c2ccccc21	0.255 µM	0.19 µM	1 µM	4.2
Cc1cccc(NC(=O)NC2N=C(c3ccccc3)c3ccccc3N(CC(=O)NCC(=O)NCCSCc3csc(N=C(N)N)n3)C2=O)c1 (centres undefined)	6.8 µM	0.76 µM	3.98 µM	2.1
Cc1cccc(NC(=O)NC2N=C(c3ccccc3)c3ccccc3N(CC(=O)NCCCCCC(=O)NCCCOc3cccc(CN4CCCCC4)c3)C2=O)c1 (centres undefined)	0.8 µM	0.65 µM	0.398 µM	40.6
Cc1cccc(NC(=O)NC2N=C(c3cccc(OCC(=O)NCC(=O)NCCSCc4csc(N=C(N)N)n4)c3)c3ccccc3N(C)C2=O)c1 (centres undefined)	0.31 µM	1.09 µM	1 µM	90.8
CN1C(=O)[C@H](NC(=O)Nc2cccc(CC(=O)NCCCCCC(=O)NCCCOc3cccc(CN4CCCCC4)c3)c2)N=C(c2ccccc2)c2ccccc21	0.092 µM	0.34 µM	0.631 µM	3.1
CN1C(=O)[C@H](NC(=O)Nc2cccc(C(=O)NCCSCc3csc(N=C(N)N)n3)c2)N=C(c2ccccc2)c2ccccc21	0.44 µM	0.38 µM	> 10 µM	1
Cc1cccc(NC(=O)NC2N=C(c3ccccc3)c3ccccc3N(CC(=O)NCCCOc3cccc(CN4CCCCC4)c3)C2=O)c1 (centres undefined)	0.54 µM	5.7 µM	> 10 µM	36.8
Cc1cccc(NC(=O)NC2N=C(c3cccc(OCC(=O)NCCC(=O)NCCSCc4csc(N=C(N)N)n4)c3)c3ccccc3N(C)C2=O)c1 (centres undefined)	0.4 µM	2 µM	0.794 µM	80
CN/C(=N/CCSCc1nc[nH]c1C)NC#N [CIMETIDINE]	–	–	0.251 µM	–
CN1C(=O)[C@H](NC(=O)Nc2cccc(CC(=O)NCCSCc3csc(N=C(N)N)n3)c2)N=C(c2ccccc2)c2ccccc21	0.48 µM	0.56 µM	> 10 µM	3.4
Cc1cccc(NC(=O)NC2N=C(c3cccc(OCC(=O)NCCCC(=O)NCCSCc4csc(N=C(N)N)n4)c3)c3ccccc3N(C)C2=O)c1 (centres undefined)	0.215 µM	2.1 µM	0.631 µM	150
Cc1cccc(NC(=O)NC2N=C(c3cccc(OCC(=O)NCCSCc4csc(N=C(N)N)n4)c3)c3ccccc3N(C)C2=O)c1 (centres undefined)	0.35 µM	5.4 µM	5.01 µM	40
Cc1cccc(NC(=O)NC2N=C(c3ccccc3)c3ccccc3N(CC(=O)NCCCC(=O)NCCSCc3csc(N=C(N)N)n3)C2=O)c1 (centres undefined)	6.6 µM	0.72 µM	3.16 µM	3.8
Cc1cccc(NC(=O)N[C@@H]2N=C(c3ccccc3)c3ccccc3N(C)C2=O)c1 [L-365260]	–	11.1 µM	–	–

More lines, now with the values ahead:

IC50 [1]	IC50 [2]	Kb [3]	Ratio [4]	SMILES
2.15 µM	1.3 µM	0.794 µM	7	Cc1cccc(NC(=O)NC2N=C(c3ccccc3)c3ccccc3N(CC(=O)NCCC(=O)NCCCOc3cccc(CN4CCCCC4)c3)C2=O)c1 (centres undefined)
0.29 µM	9.4 µM	0.316 µM	157	Cc1cccc(NC(=O)NC2N=C(c3cccc(OCC(=O)NCCCC(=O)NCCCOc4cccc(CN5CCCCC5)c4)c3)c3ccccc3N(C)C2=O)c1 (centres undefined)
5 µM	0.9 µM	0.794 µM	4.3	Cc1cccc(NC(=O)NC2N=C(c3ccccc3)c3ccccc3N(CC(=O)NCCCC(=O)NCCCOc3cccc(CN4CCCCC4)c3)C2=O)c1 (centres undefined)
0.55 µM	5.2 µM	0.501 µM	82.5	Cc1cccc(NC(=O)NC2N=C(c3cccc(OCC(=O)NCC(=O)NCCCOc4cccc(CN5CCCCC5)c4)c3)c3ccccc3N(C)C2=O)c1 (centres undefined)
0.205 µM	0.33 µM	0.398 µM	2.9	CN1C(=O)[C@H](NC(=O)Nc2cccc(CC(=O)NCCCC(=O)NCCCOc3cccc(CN4CCCCC4)c3)c2)N=C(c2ccccc2)c2ccccc21
1.7 µM	9.2 µM	5.01 µM	16.1	Cc1cccc(NC(=O)NC2N=C(c3cccc(OCC(=O)NCCCOc4cccc(CN5CCCCC5)c4)c3)c3ccccc3N(C)C2=O)c1 (centres undefined)
3.6 µM	0.43 µM	6.31 µM	0.5	Cc1cccc(NC(=O)NC2N=C(c3ccccc3)c3ccccc3N(CC(=O)NCC(=O)NCCCOc3cccc(CN4CCCCC4)c3)C2=O)c1 (centres undefined)
0.32 µM	3.6 µM	0.631 µM	112	Cc1cccc(NC(=O)NC2N=C(c3cccc(OCC(=O)NCCCCCC(=O)NCCCOc4cccc(CN5CCCCC5)c4)c3)c3ccccc3N(C)C2=O)c1 (centres undefined)
0.76 µM	15 µM	0.501 µM	75	Cc1cccc(NC(=O)NC2N=C(c3cccc(OCC(=O)NCCC(=O)NCCCOc4cccc(CN5CCCCC5)c4)c3)c3ccccc3N(C)C2=O)c1 (centres undefined)
0.29 µM	0.19 µM	0.251 µM	1.4	CN1C(=O)[C@H](NC(=O)Nc2cccc(CC(=O)NCCC(=O)NCCCOc3cccc(CN4CCCCC4)c3)c2)N=C(c2ccccc2)c2ccccc21
